Data from patent publication US20230226135A9, “ACETYLCHOLINE MODULATION OF IMMUNE FUNCTION” (BCell Solutions, Inc., priority 2019, published 2023).
“Also recorded” adds a separate entry of the source.

Tests used:
[1] = Dosing formulation storage and stability; assay type: physicochemical; conditions: 5 mg/mL DMSO stock
Description: Test Article Formulation Instructions & Calculations: Peptide dosing solution (0.2 mg/mL) was made fresh daily within 1 hour of use by diluting 0.09 mL of 5 mg/mL DMSO stock into 2.11 mL sterile saline. DMSO stock was kept at 4 C, then refrozen (to avoid repeated freeze-thaw cycles). Still, stock was relatively “solid” even at 4 C.
MLA antagonist dosing solution (0.6 mg/mL) was made on Day 2 by diluting the entire 5 mg in the sealed vial with 8.3 mL of sterile saline and aliquoting out ˜1.1 mL in each of seven 2 mL cryovials and freezing at −20 C. Four vials were used in the experiment, each thawed within 1 hour of use. Three vials remain frozen.
Dosing Formulations and Vehicle Storage & Stability: Saline vehicle is stable at 4 C for months. Peptide dosing solutions were made up and used fresh daily. […] MLA frozen “stock” solutions were stable for up to 1 month.

[2] = Preeclampsia model in pregnant mice (TLR agonists), blood pressure; assay type: in vivo; conditions: TLR agonist induced, CAP i.p. 2 mg/kg
Description: FIG. 15. CAP reverses inflammatory characteristics in a preeclampsia model. Pregnant mice were treated with TLR agonists (R837, Clo97, and PIC) to induce symptoms of preeclampsia followed by CAP treatment (shown as TPP).
Preeclampsia, a disease suffered by pregnant woman that is characterized by high blood pressure and signs of damage to other organ systems, most often the liver and kidneys, is often accompanied by inflammation. […] Preeclampsia is also associated with an elevated TH17 response, including elevated IL17a, and elevated IL17a is associated with human and experimental hypertension and poor perinatal outcomes. […] Therefore, the anti-inflammatory effects of CAP were associated with improved outcomes in this model.

[3] = tested on: blood brain barrier (BBB); assay: Intravital microscopy of BBB permeability and lymphocyte adhering/rolling in pial venules; assay type: in vivo, C57 BL/6J mice
Source text: Whether intranasal infection with Streptococcus pyogenes would induce blood-brain barrier permeability in C57 BL/6J mice by a TLR-dependent mechanism was examined. Immediately following craniotomy, mice were placed under an intravital microscope to study vascular permeability and leukocytes. Permeability of cerebral blood vessels was observed using FITC-dextran fluorescent dye and, tracing of leukocytes is observed by labeling such cells with Rhodamine-6G. Intranasal infection with Streptococcus pyogenes (gram positive) increased BBB permeability (FIG. 4) and the number of adherent or rolling lymphocytes (FIG. 4) within 24 hours post-infection, compared to saline treated controls.
Methods: To test the hypothesis that intranasal infection may increase BBB permeability, we exposed mice to GAS via intranasal infection with Streptococcus pyogenes (GAS). We assessed BBB permeability using intravital microscopy, and we characterized the immune response to GAS using flow cytometric analysis of nasal associated lymphoid tissue (NALT), spleen, and brain.
Intranasal infection: Isoflurane gas was employed to briefly anesthetize mice (1-2 minutes). Once anesthetized, 7.5 uL of streptococcal bacterial suspension (OD600=0.5-0.6) was placed on each nares (outer nostril) of mouse. Control mice received intranasal inoculation with vehicle (PBS). The droplets were inhaled into nasal sinuses. This small volume avoids inoculation of the lungs, but reproducibly results in colonization of nasal-associated lymphoid tissue (NALT, Park 2003; Wang 2010).
Intraperitoneal injection: The TLR 1/2 agonist, Pam-3-Cys (25 ug/mouse; Pam3CSK4, InvivoGen, San Diego Calif.) was intraperitoneally (right side) injected into mice 24 hours before intravital microscopy. P3C causes immune cell activation and polycolonal expansion of B-lymphocytes by Toll-Like receptor ligation (Newell 2010). Control mice received equal volume of vehicle (PBS) intraperitoneally.
MHC class II-targeted proprietary peptide (TPP, Elim Biopharmaceuticals Inc., Hayward Calif.; also see Newell 2010) was administered intraperitoneally (5 ug/mouse, left side), sometimes in conjunction with P3C (right side). TPP was dissolved in DMSO for a final concentration of 2.5% DMSO in PBS. Control mice received vehicle (2.5% DMSO in PBS) intraperitoneally.
Preparation of Mice: Mice were anesthetized with an (i.p.) injection of 50% urethane (Sigma-Aldrich, U2500) in PBS ([…]) and maintained on heating pad. Anesthetic plane was assessed throughout preparation and experiments, by response to toe pinch. If needed, urethane supplement was given at 10% of original dose volume. To prepare mice tails for intravenous (i.v.) dye injection we maintained anesthetized mice on a heating pad for 10-15 minutes, and then briskly wiped tails (toward tail-end) with 70% ethanol wipes to remove scales/hair and increase vasodilation. Immediately following tail wiping, Fluorescein dextran 10 kDa (10 mg/mL, Sigma-Aldrich, FD10S) was administered (2 uL/g mouse) via right lateral tail vein and, Rhodamine 6G (0.2 mg/mL, Sigma-Aldrich, 83697) was administered (1.6 uL/g mouse) via left lateral tail vein. When needed, tail was wiped multiple times to ensure clear visualization of tail veins. Following successful (i.v.) injection of dyes, mice underwent craniotomy.
Craniotomy: A craniotomy (removal of a small area of skull) was performed to expose the cerebrum and allow imaging of cerebral microvasculature (specifically pial vessels of pia mater). First, an incision across the midline of the scalp was made to expose the right parietal bone. The skull was then carefully marked with a waterproof marker, designating the area, 1 mm posterior from the Bregma and 4 mm lateral from the midline, to be removed (craniotomy diameter: 2.5 mm). Next, the craniotomy was performed with a drill ensuring the dura mater was not cut. […]

IL1β and IL6 = assay: Collagen-induced arthritis model (collagen emulsion in CFA), pro-inflammatory cytokines; assay type: in vivo, mice
Description: FIG. 8. Collagen-induced arthritis model. Animals were injected with a collagen emulsion in Complete Freunds Adjuvant (CFA) and treated with either CAP during early disease development or once arthritic disease was established.
Central to the overarching hypothesis, is the anti-inflammatory effects of CAP.
Rheumatoid arthritis (RA), an autoimmune condition caused by the immune system attacking healthy body tissue by directing antibodies to the lining of the joints, where they attack the tissue surrounding the joint. In an established mouse model of RA, induced by injection of collagen and Complete Freunds Adjuvant (CFA), there is an increase in the pro-inflammatory cytokines, IL1B and IL6 (FIG. 17). […] Therefore, different doses of CAP appear to be effective in the developing versus the established stages of the disease. These changes were accompanied by a reduction in peripheral B cells. These findings are important because IL6 and IL1B are differentially elevated depending on the severity of various infections, such as SARS-CoV-2. Thus, testing different doses of CAP at different stages of infection will be helpful to optimizing translational therapy.

[4] = TPP 5 ug/mouse i.p., 24 hours, listed as TPP

FRIMAVLAS [CAP, α7nAChR agonist]
stability of DMSO stock [1]: stable for a few months | elevated blood pressure [2]: significantly reduced | P3C-induced lymphocyte rolling ([3]; TPP 5 ug/mouse i.p. with P3C, 24 hours): reduced | P3C-induced lymphocyte adhering ([3]; TPP 5 ug/mouse i.p. with P3C, 24 hours, listed as TPP): reduced; also recorded: significantly reversed | streptococcal infection-induced lymphocyte adhering [3, 4]: significantly reversed | streptococcal infection-induced lymphocyte rolling [3, 4]: reversed; also recorded: reduced | size of adherent cells ([3]; TPP in infected or P3C treated mice): did not attenuate | reducing IL1β and IL6 (IL1β and IL6; 0.2 mg/kg i.p., developing stage): most efficacious | reducing IL1β and IL6 (IL1β and IL6; 20 mg/kg i.p., established stage): most efficacious | peripheral B cells (IL1β and IL6; RA model, CAP i.p.): reduction | cytokines (IL1β and IL6; early or established disease, particularly in the established (late stage) model): dose dependent reduction | reducing IL1B and IL6 (IL1β and IL6; i.p. 2 mg/kg, developing stage): most efficacious
